Experimental data published in ChEMBL document CHEMBL4376854, “Investigation of the Adrenergic and Opioid Binding Affinities, Metabolic Stability, Plasma Protein Binding Properties, and Functional Effects of Selected Indole-Based Kratom Alkaloids” (J Med Chem, 2020).
pKi: −log10 of the molar value. Activity calls are given as the source filed them. No cut-off for these calls is given here.

Tests used:
in vitro = settings: human, plasma
[1] = molecular target: T1, Delta-type opioid receptor (Homo sapiens, UniProt P41143); assay: Displacement of [3H]DADLE from human recombinant delta opioid receptor expressed in rat Chem-1 (RBL) cell membranes at 100 nM incubated for 60 mins relative to control
T1 sequence (P41143 whole entry): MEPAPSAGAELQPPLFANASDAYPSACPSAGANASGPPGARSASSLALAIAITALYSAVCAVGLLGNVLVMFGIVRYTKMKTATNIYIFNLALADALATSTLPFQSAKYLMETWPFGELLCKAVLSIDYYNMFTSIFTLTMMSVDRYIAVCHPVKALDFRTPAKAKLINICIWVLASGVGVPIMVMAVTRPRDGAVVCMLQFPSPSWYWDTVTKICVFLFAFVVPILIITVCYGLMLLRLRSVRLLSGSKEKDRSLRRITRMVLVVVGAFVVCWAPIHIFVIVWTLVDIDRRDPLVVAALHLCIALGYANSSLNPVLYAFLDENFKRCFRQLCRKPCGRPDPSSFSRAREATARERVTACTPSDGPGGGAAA

[2] = Protein binding in human plasma at 1 uM by equilibrium dialysis; type: ADME, cell-free; settings: read-out: PPB (converted)
Rattus norvegicus [3] = assay: Antinociceptive activity in Sprague-Dawley rat dosed intravenously using cumulative dosing every 5 mins until rat maxed-out on hot plate by hot plate test relative to control; type: functional
[4] = human, microsomes, 1 µM
[5] = molecular target: Kappa-type opioid receptor (Homo sapiens, UniProt P41145); assay: Displacement of [3H]U69,593 from human recombinant kappa opioid receptor expressed in rat RBL cell membranes incubated for 60 mins
Sequence of Kappa-type opioid receptor (P41145 whole entry): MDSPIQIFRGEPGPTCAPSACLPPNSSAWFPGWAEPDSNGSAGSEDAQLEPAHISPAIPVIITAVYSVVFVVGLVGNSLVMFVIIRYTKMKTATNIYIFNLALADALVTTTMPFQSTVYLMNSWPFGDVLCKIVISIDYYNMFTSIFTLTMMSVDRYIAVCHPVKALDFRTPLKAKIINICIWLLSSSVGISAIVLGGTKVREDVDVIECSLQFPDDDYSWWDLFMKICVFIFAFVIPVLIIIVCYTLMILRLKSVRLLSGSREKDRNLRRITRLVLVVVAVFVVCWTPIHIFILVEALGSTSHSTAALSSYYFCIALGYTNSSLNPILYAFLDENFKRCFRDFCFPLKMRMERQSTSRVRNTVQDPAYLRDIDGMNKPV

Rattus norvegicus [6] = assay: Antinociceptive activity in Sprague-Dawley rat dosed intravenously using cumulative dosing every 5 mins until rat maxed-out on hot plate by hot plate test; type: functional; settings: iv
Rattus norvegicus [7] = assay: Antinociceptive activity in Sprague-Dawley rat dosed intravenously using cumulative dosing every 5 mins until rat maxed-out on hot plate co-treated with 0.1 mg/kg naltrexone by hot plate test; type: functional, organism-based
[8] = molecular target: T1, Delta-type opioid receptor; assay: biochemical
[9] = human, microsomes, 1 h
[10] = molecular target: T1, Delta-type opioid receptor; assay: Antagonist activity at human recombinant delta opioid receptor expressed in rat Chem-1 (RBL) cells assessed as inhibition of DPDPE-induced intracellular calcium levels incubated at room temperature by fluorimetry; type: functional, cell-based
[11] = Toxicity in Sprague-Dawley rat assessed as induction of hypothermia at 0.0032 to 10 mg/kg, iv; type: organism-based; settings: in vivo
[12] = molecular target: T1, Delta-type opioid receptor; assay: Displacement of [3H]DADLE from human recombinant delta opioid receptor expressed in rat Chem-1 (RBL) cell membranes at 10000 nM incubated for 60 mins relative to control
Mu-type opioid receptor = Mu-type opioid receptor (Homo sapiens, UniProt P35372); assay: biochemical
Sequence of Mu-type opioid receptor (P35372 whole entry): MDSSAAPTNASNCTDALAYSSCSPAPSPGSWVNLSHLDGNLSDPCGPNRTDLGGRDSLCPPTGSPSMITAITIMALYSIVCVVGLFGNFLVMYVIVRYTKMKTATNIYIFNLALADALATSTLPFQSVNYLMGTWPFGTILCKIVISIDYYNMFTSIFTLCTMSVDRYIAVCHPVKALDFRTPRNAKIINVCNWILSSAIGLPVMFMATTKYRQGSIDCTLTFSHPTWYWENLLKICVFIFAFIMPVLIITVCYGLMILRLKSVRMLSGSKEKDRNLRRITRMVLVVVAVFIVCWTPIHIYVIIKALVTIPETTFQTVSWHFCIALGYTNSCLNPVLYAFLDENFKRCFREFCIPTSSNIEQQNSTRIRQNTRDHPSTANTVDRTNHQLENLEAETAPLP

Row | SMILES | fraction unbound at 1 µM (in vitro) | inhibition [1] | fraction unbound at 1 µM [2] | MPE (Rattus norvegicus [3]) | Fu [4] | pKi [5] | ED50 (Rattus norvegicus [6]) | Activity (Rattus norvegicus [7]) | pKi [8] | Kel [9] | Kb [10] | Activity [11] | inhibition [12] | pKi (Mu-type opioid receptor)
1 | CC[C@@H]1CN2CC[C@@]3(O)C(=Nc4cccc(OC)c43)[C@@H]2C[C@@H]1/C(=C\OC)C(=O)OC | 0.1 | 19.6% | 0.1 | 100% | 0.852 | 7.13 | 1.91 mg/kg | inactive | 6.63 | 0.0041 min⁻¹ | 550 nM | Non-Toxic | 93.7% | –
2 | CC[C@@H]1CN2CCc3c([nH]c4cccc(O)c34)[C@@H]2C[C@@H]1/C(=C\OC)C(=O)OC | – | – | – | – | – | – | – | – | – | – | – | – | – | 6.98
3 | CN1CC[C@]23c4c5ccc(O)c4O[C@H]2[C@@H](O)C=C[C@H]3[C@H]1C5 [MORPHINE] | – | – | – | – | – | – | 5.1 mg/kg | inactive | – | – | – | – | – | –
